One test concerns HIV-1 (strain 3B). As to the kind of experiment: Anti-HIV-1 activity, reversal of cytopathic effect in MT4 cells (propidium iodide dye uptake). In kind it is cell-based. The note with it: Human immunodeficiency virus 1, MT4, 120 h, 100XTCID50, five days, protection of 50% of the cells from cell killing.
The subject of a further test is human hepatitis B virus. Description: Anti-HBV activity in human HBV producer cell line of HepG2, 2.2.15. In kind it is cell-based. The note with it: HepG2 2.2.15 cells, ten days; criterion at least 100-fold reduction of Dane particles and similar decrease of intracellular replicative intermediates. The procedure: ii) The human HBV producer cell line of HepG2, 2.2.15, described and characterized by Sells et al., PNAS 84:1005, 1987 and J. Virol. […] This cell line was utilized in vitro to identify compounds with anti-HBV activity.
To test compounds for antiviral activity, monolayer cultures were treated with compound. […], for ten days. Supernatant media containing extracellular virion DNA (Dane particles) were harvested on days three, six and ten, treated with proteinase K (1 mg/mL) and sodium dodecyl sulfate (1%), and incubated at 50° C. for one hour. DNA was extracted with equal volumes of phenol followed by chloroform and then precipitated by ammonium acetate and propanol. […] After precipitation by ammonium acetate and propanol, the intracellular DNA precipitate was dissolved, cut by restriction endonuclease, Hind III, applied to agarose gel and then treated as described by Southern to determine the quantity of replicative intermediate forms. The antiviral effect of the drug was determined by measuring at least a 100-fold reduction of the amount of Dane particles extruded into the culture medium and a similar decrease in the intracellular replicative intermediates.

This note sets out measurements from US5153318A, “3'-Azido nucleoside compound” (Burroughs Wellcome Co., priority 1989, dated 1992).

Description for HIV-1 (strain 3B): i) Anti-HIV activity was determined by measuring the ability of the compound to reverse the cytopathic effect of HIV infection. This was determined by a quantitative assessment of cell growth monitored at the fifth day post infection by a propidium iodide dye uptake test. MT4 cells were incubated with 100XTCID50 of HIV-1 (strain 3B) or HIV-2 (Zagury strain) for one hour prior to addition of compound in six different concentrations varying from 2 to 200 μM. The cells were allowed to incubate for five days at 37° C. On day five, NP-40, a detergent, was added to a final concentration of 0.5% immediately prior to analysis. Cell number was determined using a method which measures the fluorescence of a dye (propidium iodide) which binds to DNA. Since the amount of DNA is directly proportional to cell number, this fluorescence assay is an indication of cell growth. While uninfected cells double in cell number several times during the five days duration of the assay. HIV-infected cells grow very little, if at all.

Regarding `[N-]=[N+]=N[C@H]1C[C@H](n2cnc3c(OCc4ccccc4)nc(N)nc32)O[C@@H]1CO` [Example 6b, 2-Amino-9-(3-azido-2,3-dideoxy-β-D-erythro-pentofuranosyl)-6-benzyloxy-9H-purine], the IC50 with HIV-1 (strain 3B) amounted to 8.9 µM.

Take `CN(C)c1nc(N)nc2c1ncn2[C@H]1C[C@H](N=[N+]=[N-])[C@@H](CO)O1` [Example 7b, 2-Amino-9-(3-azido-2,3-dideoxy-β-D-erythro-pentofuranosyl)-6-dimethylamino-9H-purine]: the “inhibition of human hepatitis B virus” value with human hepatitis B virus was “strong inhibition”.

A word on the IC50: it is the concentration at which inhibition is half-maximal.
